Measurements taken from US20140322145A1, “ANTIMICROBIAL COMPOSITION” (Rohm and Haas Company, priority 2011, published 2014).

Experiments:
Type in all cases: cell-based
[1] = tested on: Escherichia coli (E. coli—ATCC #10536); experiment: High resolution MBC synergy assay in phosphate buffer containing 35% dipropylene glycol (Example 2); conditions: complete kill in 15 seconds; other component 0
Procedure: In this Example, a wide range of combinations of chemicals was tested by conducting high resolution MBC assays of isocyclogeraniol in the presence of various concentrations of thymol. The materials were sourced in the same way as for Example 1. Synergy tests were conducted using standard microtiter plate assays with phosphate buffer containing 35% dipropylene glycol (DPG). […] The MBC plate was inoculated one column at a time with the test microorganism. An aliquot of the inoculated well was transferred at 15 seconds to a plate containing a neutralizing agent (D/E Neutralizing Broth), mixed and held for 5 minutes before being transferred to a growth plate containing trypticase soy broth (TSB). The TSB plate was incubated at 37° C. and read for the presence I absence of growth at 24 hours. […] This microorganism is representative of natural contaminants in many consumer and industrial applications.

[2] = tested on: Escherichia coli (10536 strain); experiment: 15 seconds contact-time bacterial kill assay, microtitre plate, plate counts (Examples 1 and 3); conditions: for MBC of antimicrobial alcohol: alcohol alone
Procedure: The efficacies of antimicrobial agents can be usefully compared by determining the Minimum Biocidal Concentration (MBC). The MBC is defined as the lowest absolute concentration of the particular active that provides complete kill (zero bacterial growth).
Antimicrobial efficacy is tested against a representative pathogenic bacterial organism, Gram negative Escherichia coli. Concentrations of actives are expressed in terms of the percentage weight/volume (% w/v) throughout Example 1.
An overnight culture of Escherichia coli (10536 strain) was prepared in 50 ml total volume of TSB broth, grown for ca. 18 hrs at 37° C. and shaken at 150 rpm. 1 ml of this overnight E. coli culture was transferred to 50 ml of fresh TSB broth and incubated at 37° C. at 150 rpm for ca. 4 hours. This culture was separated into equal volumes and centrifuged at 4000 rpm for 15 minutes, washed with sterile saline (0.85% NaCl), centrifuged once more and re-suspended in saline to give a final concentration of 0.8 OD620 equivalent to about 10^8 cells per milliliter for this particular organism. Here, OD620 indicates the absorbance of a sample in a cuvette of 1.0 cm path length at a wavelength of 620 nm. This bacterial stock was used for assaying against antimicrobial actives (in triplicate).
The following assay describes the testing of 8 materials using 6 dilutions across half of a 96-well micro titre plate (MTP). Using this approach it is possible to assay 16 actives (without replicates) with one full dilution plate, replicating this set up in two halves of the plate columns, 1-6 and 7-12.
1M solutions of the test actives were prepared in dimethylsulphoxide (DMSO).
Aliquots (270 μl) of the materials at 1.11 times the final concentration were dispensed into the wells of the MTP along one column (A1-H1). This MTP was labelled as the “Screening plate”.
In another MTP, labelled as the “Dilution plate”, 270 μl of D/E neutralising solution from DIFCO Composition was added to column 1. The composition of the neutralising solution was as follows: pancreatic digest of casein, 5.0 g/L; Yeast Extract, 2.5 g/L; Dextrose, 10 g/L, sodium thioglycollate, 1.0 g/L, sodium thiosulphate, 6.0 g/L; sodium bisulphite. 2.5 g/L; Polysorbate 80, 5.0 g/L; lecithin 7.0 g/L; bromocresol purple, 0.02 g/L with a pH in the range 7.6±0.2.
270 μl of tryptone diluent solution was added to all the remaining wells of the Dilution MTP (columns 2-6).
Bacterial stock (30 μl) was then added to the prepared 270 μl of the solution of actives in the Screening Plate and mixed, using a multichannel pipette with 8 tips to aspirate and dispense the same volume of bacterial stock in parallel to 8 wells in rows A-H. After a contact time of 15 seconds, the mixtures were quenched by transferring 30 μl volumes of the mixtures into the 270 μl DIE neutralising solution in the prepared dilution plate, using aspiration to mix. After exactly 5 minutes in the DIE neutralising solution, 30 μl volumes were transferred from column 1 to column 2 of the Dilution MTP and mixed, before transferring further 30 μl volumes from column 2 into column 3. This process was repeated serially diluting the bacteria across the plate to column 6.
30 μl volumes from each well in the Dilution MTP were transferred onto pre-labelled segment of Tryptone Soya Agar (TSA) plates starting from the lowest bacterial concentration (highest dilution, column 6) to the highest bacterial concentration (column 1). The TSA plates were allowed to stand for ca. 2 hours so that the 30 μl inocula spots could dry and the plates were then inverted and incubated overnight at 37° C. before enumerating the bacterial colonies at the labelled dilutions to determine the effects of the actives on bacterial growth.
Mean bacterial survival numbers NMBS (expressed in Log CFU/ml) are obtained by first determining the segment of the TSA plate where the number of bacterial colonies is countable. From the colony number in this segment, NMBS is calculated by the formula: […]

[3] = tested on: Escherichia coli (E. coli—ATCC #10536); experiment: Automated assessment of efficacy in surfactant base (Example 4); conditions: for 15 second bactericidal efficacy in combination with thymol: at concentrations lower than their MBC in the same surfactant formulation; for MBC (minimum biocidal concentration): in 2.85% sodium cocoyl glycinate + 1.85% sodium lauroamphoacetate solution at pH 10
Procedure: In these examples, the efficacy of combinations of thymol and antimicrobial alcohols of the invention were tested in a surfactant cleansing formulation comprising 2.85% sodium cocoyl glycinate and 1.85% sodium lauroamphoacetate. This corresponds to a 50% in use dilution with water of a typical neat formulation containing 5.7% cocoyl glycinate and 3.7% % sodium lauroamphoacetate during hand washing. Solutions were prepared such that the concentrations of the surfactant components and test actives were 1.1 times the final desired concentration in order to allow for dilution with the bacterial inoculum in the test. The solutions were manually adjusted to pH 10.0 by dropwise addition of sodium hydroxide solution, as measured with a pH meter at ambient temperature. Solutions of the thymol and/or antimicrobial alcohols of the invention were prepared at a maximum of 24 hours before testing. The same thymol and antimicrobial alcohols were used as in Examples 1 and 3.
The efficacy of the combinations of the present invention was determined against the same bacterium as in Example 1, Escherichia coli (E. coli—ATCC #10536), at a concentration of approximately 1×10^8 bacteria per mL.
Tests were conducted using standard microtiter plate assays using an automated liquid handling system. 270 μl of the surfactant test solution was pipetted into each well of the microtitre plate (Nunc F Gamma Irradiated 96F untreated microtitre plates of clear polystyrene) and 30 μl of the bacterial suspension was then added. After exactly 15 seconds of bacterial exposure, a 30 μl volume of bacterial cells was withdrawn and transferred to 270 μl of D/E quench solution. After 5 minutes in the DIE quench, the optical density (OD) was measured for each plate in turn at two specific wavelengths (450 nm and 590 nm). These provide a dual check of antimicrobial activity, as the OD450 reading is specific for the yellow colour of DIE quench when bacterial growth is observed, whereas OD590 is specific for the initial purple colour of the DIE quench which is retained if no bacterial growth is observed. After the time zero OD measurements, plates were then incubated at 37° C. overnight (16 hours) before repeating the OD measurements. Delta OD values were calculated by subtracting […] at time=16 hours. Bacterial growth is observed as an increase in OD450 and a decrease in OD590. To identify antibacterially efficacious systems (those preventing appreciable bacterial growth after incubation), the following threshold changes in OD readings have been adopted: if (1). OD450 increases by less than 0.2 absorbance unit (AU) on incubation and (2). OD590 decreases by less than 0.35 AU on incubation. Conversely, where OD450 increases by more than 0.1 AU and OD590 decreases by more than 0.1 AU after incubation, corresponding to a colour shift from purple to yellow, the test system allows bacterial growth and is not deemed efficacious. Four replicate measurements in the same plate have been made for each test system. The number of replicate wells showing either bacterial growth or no growth is also readily assessed by eye by following the colour change. Thymol and terpineol were tested both alone and in combination for comparison purposes.
In each case, binary mixtures were assessed in the weight to weight ratio of thymol to antimicrobial alcohol of 1:2.5.

[4] = Table 10, from the data in Table 9, 15 seconds

Structure (SMILES)	MBC of component alone (MBCA, MBCB) [1] [weight %]	MBC of thymol ([2]; Table 5, thymol alone, 15 seconds)	MBC of thymol ([2]; Table 11, MBC of thymol of Example 1)	15 second bactericidal efficacy in combination with thymol [3]	MBC (minimum biocidal concentration) [3]	MBC (minimum biocidal concentration) [2, 4] [% w/v]	MBC of antimicrobial alcohol ([2]; Table 11, 15 seconds)	MBC (minimum biocidal concentration) ([3]; listed as Isocyclogeraniol) [% w/v]	MBC (minimum biocidal concentration) ([2]; Table 4, lowest concentration giving zero bacterial survival after 15 seconds, upper boundaries) [% w/v]	MBC of antimicrobial alcohol ([2]; Table 5, 15 seconds)
Cc1ccc(C(C)C)c(O)c1 [thymol, 2-isopropyl-5-methylphenol]	0.5	0.05 % (w/v)	0.05 % (w/v)	–	–	–	–	–	–	–
CC1CCC(CO)C(C)C1 (centres unmarked) [dihydrofloralol, (2,4-dimethylcyclohexyl)methanol]	–	–	–	complete kill in all 4 replicates	0.5 % w/v	0.5	0.5 % (w/v)	–	–	–
CC1=CC(C)C(CO)C(C)C1 (centres unmarked) [isocyclogeraniol, (2,4,6-trimethylcyclohex-3-en-1-yl)methanol]	0.6	–	–	complete kill in all 4 replicates	higher than the highest tested concentrations	–	–	>0.5	0.3	0.3 % (w/v)
CC1=CCC(CO)C(C)C1 (centres unmarked) [floralol, (4,6-dimethylcyclohex-3-en-1-yl)methanol]	–	–	–	complete kill in all 4 replicates	0.4 % w/v	0.3	0.3 % (w/v)	–	–	–
